For one data set, the system named is intrascapular region. Kind of data set: Intrascapular thermogenesis in inbred mouse strains on high and low fat diets. The format is in vivo, mice. The following applies: 1 mg/kg i.p., 60 min. The protocol:
(§1) Male AKR/J, C57BL/6J, and SWR/J mice were purchased from 4-8 weeks of age from Jackson Laboratories (Bar Harbor, Me.). Mice were fed high and low fats diets containing high sucrose as defined by Surwit et al., (Metabolism 44(5):645-651 (1995)). After 14 weeks on these diets, the intrascapular fur was shaved, the animals were dosed (intraperitineal) with 1 mg/kg of BRL37344, and the animals were anesthetized with isofluorane. Nude mice (BALB/C) were 6-8 weeks old and were dosed with inhalant two times before thermal profiling. The Lewis rat strain (200-250 g) were used for both the MED and inflammation experiments. Infrared thermographic images and temperature calculations were recorded using an Agema Thermovision 900 Infrared System.
One environmental component that alters the metabolic rate in individuals with a genetic predisposition towards diabetes, dyslipidemia, or obesity is diet. It was unknown if thermography could be used to measure the effects of diet on drug-induced changes in heat production in animals with different genotypes. Thus, three different inbred strains of mice, AKR/J, C57BL/6J, and SWR/J, were maintained on high and low fat diets for 14 weeks before treating with the β3-adrenoceptor agonist, BRL37344. The heat produced in the intrascapular region was measured before and after 60 min treatment using infrared thermography. […] Thus, this technique may be used to select, rank order for the efficacy and potency of compounds with the, desired properties for a given environment or genetic background. Similarly, this technique can be used to identify, rank, and select animals and environmental factors with the desired properties for a given drug candidate.

For data set [1], the system named is interscapular brown adipose tissue (IBAT). Kind of data set: IBAT thermogenesis in ob/ob mice, shaved or skin replaced with IR transparent adhesive. The format is in vivo. The note with it: 0.01-1 mg/kg i.g., 1 hour. How it is done:
FIG. 28. Interscapular brown adipose tissue (IBAT) thermogenesis in ob/ob mice 1 hour after treatment with the […]-adrenoceptor agonist BRL37344 detected by IR thermography. Ten week old male ob/ob mice (Jackson Labs, Bar Harbor, Me.) were housed 5 animals/cage at 72° F. and 50% relative humidity with a 12 h light and dark cycle. They were fed chow diet (NIH R&M/Auto 6F-Ovals 5K67, PMI Feeds® Inc., Richmond, Ind.) and water ad libitum. Mice were dosed at 0.0, 0.01, 0.1, 0.3, or 1 mg/kg BRL37344 in water vehicle (0.25 mL i.g.; n=20 per dose). All animals were anesthetized with isofluorane and shaved to expose the area of interest prior to IR scanning. […] Images were recorded at 1 min intervals for 5 min with a frame averaging rate of 32 frames/sec. Acquired images were analyzed for average temperatures using an in-house image processing software application (Roboimage). Data are expressed as either average temperature/area or delta temperature/area (drug treated-vehicle treated).
The top panels show IR images of the interscapular regions of mice whose skin was removed and Bioclusive adhesive covering placed over the IBAT or mice who have been shaved only following treatment with BRL37344 at the doses indicated for 1 hour. Quantification of IR signal in the IBAT region is shown in the bottom panel. […]

In data set [2] the test system is C3H10T1/2 adipocytes. Kind of data set: Lipolysis in adipocytes treated with β-AR-agonists. The following applies: adipocytes, dose response; read-out: EC50 (nM) Lipolysis. The format is cell-based. How it is done: (§2) Human subcutaneous adipocytes were purchased from Zen-Bio, Inc. (Research Triangle Park, N.C.). C3H10T1/2 clone 8 fibroblasts were differentiated into adipocytes as previously described (Lenhard et al, Biochem. Pharmacol. 54:801-808 (1997), Paulik and Lenhard, Cell Tissue Res. 290:79-87 (1997)). After 7 days in culture, triglyceride accumulation was determined by adding lipoprotein lipase and GPO-Trinder reagent (assay kit 337-B, Sigma Diagnostics, St. Louis, Mo.) to the cells (50 μl/cm^2) and incubating the lysates at 37° C. for 2 hours. The optical density was measured using a spectrophotometer set at a wavelength of 540 nm. Lipolysis was measured as previously described (Lenhard et al, Biochem. Pharmacol. 54:801-808 (1997)).
(§3) As a control, the effects of β-AR-agonists on lipolysis was also measured. […] In general, this expands to measuring thermogenic activity of both catabolic and anabolic mediated-effects of potential drug candidates.

For data set [3], the system named is C3H10T1/2 adipocytes. Kind of data set: Infrared thermography of thermogenesis in cultured adipocytes (β-AR-agonists). The following applies: for stimulation of thermogenesis: C3H10T1/2 adipocytes; for EC50: adipocytes, infrared thermography, dose response, read-out: EC50 (nM) Thermogenesis. Format: cell-based. The protocol:
as §2
Heat generation was measured using a Stirling cooled Agema Thermovision 900 Infrared System AB (Marietta, Ga.) equipped with a SW Scanner and 40°×25° lens which detects a 2-5.4 micron spectral response. […] The focal distance was 6 cm. Images were captured using a recurs function set at 16 or an averaging function set at 32. The data was analyzed using OS-9 advanced systems and ERIKA 2.00 software according to the manufacturer's specifications (FLIR Infrared Systems AB, Danderyd, Sweden). Thermography of adipocytes was performed by maintaining the ambient temperature of the cultured cells at 37±0.02° C. using a Queue Systems Inc. (Parkersburg, W.Va.) incubator, model QWJ500SABA. Spectral analysis of yeast was performed at 30±0.02° C. using the same incubator system. After treating the cells with experimental agents (e.g., rotenone etc.), the temperature was equilibrated for 10 minutes in the incubator before measuring real time thermogenesis for all microtiter plate applications. Various color scales in the visible wavelength were used to depict the temperature fluctuations of the recorded images. Although temperature scales are constant, the color scale images are variable and can be adjusted with level and span controls.
The β3-AR-agonists are candidate therapeutic agents for the treatment of diabetes and obesity. Although, the mechanism of action for these agents is thought to involve increased metabolic rate (Scarpace, Ann. N.Y. Acad. Sci. 813:111-116 (1997)), it has yet to be shown that β-AR-agonists increase heat output by adipocytes. Therefore, it was determined whether infrared imaging could be used to monitor the effects of β-AR-agonists on thermogenesis in cultured adipocytes.
as §3

For another data set, the system named is human adipocytes. Kind of data set: Infrared thermography of human adipocytes in 96-well plates. The format is cell-based. The note with it: dose response, relative to untreated cells.
For another data set, the system named is yeast. Format: cell-based.
A further data set has as its system C3H10T1/2 cells. Kind of data set: Infrared thermography of heat production in differentiating C3H10T1/2 cells (PPARγ agonists). The note with it: Mus musculus, C3H 10T1/2, in the presence of insulin and 9-cis retinoic acid (FIG. 7), read-out: EC50(μM), thermogenesis and lipogenesis assays. Format: cell-based. The protocol:
as §2
Heat generation was measured using a Stirling cooled Agema Thermovision 900 Infrared System AB (Marietta, Ga.) equipped with a SW Scanner and 40°×25° lens which detects a 2-5.4 micron spectral response. […] The focal distance was 6 cm. Images were captured using a recurs function set at 16 or an averaging function set at 32. The data was analyzed using OS-9 advanced systems and ERIKA 2.00 software according to the manufacturer's specifications (FLIR Infrared Systems AB, Danderyd, Sweden). […] Various color scales in the visible wavelength were used to depict the temperature fluctuations of the recorded images. […]

The test system of the next data set is whole back. Kind of data set: Infrared thermography of drug-induced thermogenesis in humans. The format is in vivo, human. The following applies: 60 minutes after 0.6-0.7 mg/kg. The protocol:
The effect of ephedrine on thermogenesis in two human subjects was detected by infrared Imaging 60 minutes after treatment with ephedrine at a dose of 0.6-0.7 mg/kg. […] Thus, infrared thermography can be used as a non-invasive surrogate assay to evaluate the efficacy, potency, pharmacokinetics, pharmocodynamics of drugs in clinical studies.

For a further data set, the system named is limb inflammation. Kind of data set: PGPS arthritis model, limb thermogenesis. The format is in vivo, rat. How it is done:
as §1
Arthritis is a disease characterized by inflammation of the joints and can be treated with antiinflammatory agents. Because inflammatory responses are associated with increased thermogenesis at the site of the response, arthritis and the efficacy of arthritis drugs can be monitored by thermography. […] The other limb was not treated. […] Thus, infrared thermography is a useful tool for monitoring inflammatory responses and the efficacy of antiinflammatory agents as well as providing a method for screening, selecting and evaluating the effectiveness of drug candidates for treating arthritic indications.

Protocol for human adipocytes: Heat generation was measured using a Stirling cooled Agema Thermovision 900 Infrared System AB (Marietta, Ga.) equipped with a SW Scanner and 40°×25° lens which detects a 2-5.4 micron spectral response. […] The focal distance was 6 cm. Images were captured using a recurs function set at 16 or an averaging function set at 32. The data was analyzed using OS-9 advanced systems and ERIKA 2.00 software according to the manufacturer's specifications (FLIR Infrared Systems AB, Danderyd, Sweden). Thermography of adipocytes was performed by maintaining the ambient temperature of the cultured cells at 37±0.02° C. using a Queue Systems Inc. (Parkersburg, W.Va.) incubator, model QWJ500SABA. […] After treating the cells with experimental agents (e.g., rotenone etc.), the temperature was equilibrated for 10 minutes in the incubator before measuring real time thermogenesis for all microtiter plate applications. Various color scales in the visible wavelength were used to depict the temperature fluctuations of the recorded images. Although temperature scales are constant, the color scale images are variable and can be adjusted with level and span controls.
Protocol for yeast: Heat generation was measured using a Stirling cooled Agema Thermovision 900 Infrared System AB (Marietta, Ga.) equipped with a SW Scanner and 40°×25° lens which detects a 2-5.4 micron spectral response. […] The focal distance was 6 cm. Images were captured using a recurs function set at 16 or an averaging function set at 32. The data was analyzed using OS-9 advanced systems and ERIKA 2.00 software according to the manufacturer's specifications (FLIR Infrared Systems AB, Danderyd, Sweden). […] Spectral analysis of yeast was performed at 30±0.02° C. using the same incubator system. After treating the cells with experimental agents (e.g., rotenone etc.), the temperature was equilibrated for 10 minutes in the incubator before measuring real time thermogenesis for all microtiter plate applications. Various color scales in the visible wavelength were used to depict the temperature fluctuations of the recorded images. Although temperature scales are constant, the color scale images are variable and can be adjusted with level and span controls.

On to `C[C@H](Cc1ccc(OCC(=O)O)cc1)NC[C@H](O)c1cccc(Cl)c1` [BRL37344], for which the “thermogenic response, high vs low fat diet” value is recorded as “greater thermogenic response to BRL37344 when fed the higher fat diet” in the data set on intrascapular region (AKR/J mice (obesity prone)), “little difference in the thermogenic response” with intrascapular region (C57BL/6J mice) and “greater thermogenic response when fed the lower fat diet” with intrascapular region (SWR/J mice (obesity resistant)). The IBAT thermogenesis entry in data set [1] (shaved only) is “thermogenesis increased”; in data set [1] (skin removed (peelback) and Bioclusive adhesive) it was “demonstrate a dose-response”.

As usually defined, the EC50 is the concentration needed to bring the measured effect to its halfway point. On to `C[C@H](Cc1ccc2c(c1)OC(C(=O)[O-])(C(=O)[O-])O2)NC[C@H](O)c1cccc(Cl)c1.[Na+].[Na+]` [CL316253], for which the EC50 in the data set on C3H10T1/2 adipocytes [2] came out at 7.9 nM; in the data set on C3H10T1/2 adipocytes [3] it was 8.9 nM. Further, the “thermogenesis versus treatment time” value with C3H10T1/2 adipocytes [3] (15 min vs 18 hours treatment) is given as “greater after 15 min than after 18 hours”. The stimulation of thermogenesis result in the data set with C3H10T1/2 adipocytes [3] is “stimulated”. In addition, the “dose dependence of thermogenic effect” value with C3H10T1/2 adipocytes [3] (dose range 0.8-100 nM) was “dose dependent thermogenic effect”.

`N#CC(C#N)=NNc1ccc(OC(F)(F)F)cc1` [FCCP, carbonyl cyanide p-(trifluoromethoxy)phenylhydrazone]: in the data set with human adipocytes, the “thermogenesis in human adipocytes” value is listed as “stimulated heat production”. In addition, the thermogenesis in yeast result in the data set with yeast was “stimulated heat production”.

In the case of `CC[C@H]1/C=C/C=C/C[C@@H](C)[C@H](O)[C@@](C)(O)C(=O)[C@@H](C)[C@H](O)[C@@H](C)C(=O)[C@@H](C)[C@H](O)[C@@H](C)/C=C/C(=O)O[C@@H]2[C@H](C)[C@H](CC1)O[C@]1(CC[C@H](C)[C@H](C[C@@H](C)O)O1)[C@H]2C` [Oligomycin], the EC50 in the data set on C3H10T1/2 adipocytes [3] (Mus musculus, C3H 10T1/2) stood at 9.2 nM.

With `COc1ccc(CCNCC(O)COc2ccc(O)c(O)c2)cc1OC` (stereo not shown) [RO363], the EC50 was 1000 nM in the data set on C3H10T1/2 adipocytes [2] and 956 nM in the data set on C3H10T1/2 adipocytes [3]. Besides, the stimulation of thermogenesis entry with C3H10T1/2 adipocytes [3] is “less effective than CL316243 or isoproterenol”.

Turning to `C[C@@H]1C[C@@H]([C@H](O)CC2CC(=O)NC(=O)C2)C(=O)[C@@H](C)C1` [cycloheximide], the “effect on β3-AR-mediated thermogenesis” value in the data set on C3H10T1/2 adipocytes [3] (100 μM) is reported as “had no effect”.

On to `O=C1NC(=O)C(Cc2ccc3c(c2)CC[C@H](Cc2ccccc2)O3)S1` (stereo partly shown) [englitazone], for which the concentration for a half-maximal effect (EC50) with C3H10T1/2 cells was greater than 10 µM.

In the case of `CN[C@@H](C)[C@H](O)c1ccccc1` [ephedrine], the “Delta T” value stood at 0.63 °C with whole back (subject A) and 0.46 °C in the data set with whole back (subject B).

As for `C[C@]12C=CC(=O)C=C1CC[C@@H]1[C@@H]2[C@@H](O)C[C@@]2(C)[C@H]1CC[C@]2(O)C(=O)CO` [prednisolone], in the data set with limb inflammation (PGPS arthritis model, 6 mg/kg p.o.), the “thermogenesis of arthritic limb after treatment” value is “reverses the elevation in thermogenesis”.

With peptidoglycan polysaccharide [PGPS], the “thermogenesis of injected limb vs untreated limb” value in the data set on limb inflammation (limb injected for two weeks) is listed as “higher level of thermogenesis in the treated limb than in the untreated limb”.

The values above are taken from patent publication US6881584B1, “Infrared thermography” (SmithKline Beecham Corporation, priority 1998, dated 2005).
